For 2 compounds, IC50 results are on record in ChEMBL document CHEMBL1130428, “Design, synthesis, and cocrystal structure of a nonpeptide Src SH2 domain ligand” (J Med Chem, 1997).

The experiment addresses Tyrosine-protein kinase transforming protein Src (Rous sarcoma virus). Briefly: Inhibition of [125I]phosphopeptide binding to Src SH2 domain.

One may read the IC50 as the point on the concentration scale where inhibition reaches its midpoint. The low end stands for higher potency, the high end for lower potency.

For the compound `CN(CCCC1CCCCC1)C(=O)[C@H](CCC(=O)O)NC(=O)NCc1ccc(OP(=O)(O)O)cc1`, the half-inhibitory concentration (IC50) stood at 12 µM. This lies in the double-digit micromolar range.

As for `CC[C@H](C)[C@H](NC(=O)[C@H](CCC(=O)O)NC(=O)[C@H](CCC(=O)O)NC(=O)[C@@H](CC(=O)O)Cc1ccc(OP(=O)(O)O)cc1)C(=O)N[C@@H](CCC(=O)O)C(=O)O`, the IC50 turned out to be 0.4 µM.
